Source: US20220400669A1, “COMPOUNDS AND METHODS FOR PROMOTING PLANT GROWTH” (King Abdullah University of Science and Technology, priority 2019, published 2022)
“Also recorded” adds a separate entry of the source.

Tests used:
Format in all cases: in vivo
[1] = system: SL biosynthesis genes D27, CCD7, CCD8, CO; assay: qRT-PCR transcript analysis of SL biosynthesis genes in rice roots; conditions: 5 μM
Procedure: For transcript analysis, one-week-old seedlings were grown hydroponically in half-strength modified Hoagland nutrient solution with K2HPO4.2H2O (+Pi) and without K2HPO4.2H2O (+Pi) (−Pi) for 7 days. Seedlings were further treated with zaxinone or MZ compounds for 6 h, and tissues were collected.
Roots of rice seedling were ground and homogenized in liquid nitrogen, and total RNA was isolated using a Direct-zol RNA Miniprep Plus Kit following the manufacturer's instructions (ZYMO RESEARCH; USA). cDNA was synthesized from 1 μg of total RNA using iScript cDNA Synthesis Kit (BIO-RAD Laboratories, Inc, 2000 Alfred Nobel Drive, Hercules, Calif.; USA) according to the instructions in the user manual. The gene expression level was detected by real-time quantitative RT-PCR (qRT-PCR) which was performed using SYBR Green Master Mix (Applied Biosystems; www.lifetechnologies.com) in a CFX384 Touch™ Real-Time PCR Detection System (BIO-RAD Laboratories, Inc, 2000 Alfred Nobel Drive, Hercules, Calif.; USA). The gene expression level was calculated by normalization of a housekeeping gene in rice, Ubiquitin (OsUBQ) (Table 1). The relative gene expression level was calculated according to 2-^ΔΔCT method.

Striga hermonthica seeds = assay: Striga hermonthica seed germination bioassay with root exudates of treated rice seedlings
Procedure: For SL analysis, one-week-old seedlings were transferred into 50 ml falcon tubes (two seedlings per tube), containing half-strength Hoagland nutrient solution with K2HPO4.2H2O (+Pi), and grown in the biochamber for one week. Rice seedlings were then subjected to phosphate deficiency (−Pi) for another one week. On the day of root exudates collection, rice seedlings were first treated with 5 μM Zaxinone, or MZ compounds for 6 h, and then root exudates and root tissues were collected from each tube for LC-MS/MS analysis and Striga bioassays. Striga hermonthica seed germination bioassays were conducted by following the procedure as described previously. About 50-100 sterilized Striga seeds were spread on a glass fiber filter paper disc. Then 12 discs with Striga seeds were put on a sterilized filter paper, moistened with 3 ml sterilized water in a 90 mm petri plate. The plates were sealed with parafilm and cover with aluminum foil. All the plates were kept at 30° C. for 10 days for pre-conditioning. On 11th day, six dry discs with pre-conditioned seeds were selected and put in a 90 mm petri-dish. A filter paper ring moistened with 0.9 ml sterile MilliQ water was placed in the plate. The root exudates collected from Zaxinone or MZ compounds treated rice seedlings was applied at 50 μl on each six disc. Sterile MilliQ water and standard SL analog GR24 (2.5 μM) were included as a negative and positive control, respectively. After application, Striga seeds were incubated in dark at 30° C. for 24 hours. Germination (seeds with radicle emerging through seed coat) was scored under a binocular microscope, and germination rate (%) was calculated.

Striga hermonthica = Striga hermonthica infection of rice in pots; conditions: 5 μM, rice cv IAC-165 in pots with Striga infested soil (FIG. 13)
Procedure: Pots experiment was conducted and slightly adapted from the protocol as described previously About 20 mg (ca 8000) Striga seeds were thoroughly mixed in 1.5 L sand and soil mixture (1:1) and added in 3 L perforated plastic pot containing 0.5 L clean soil in the bottom. The pots were kept in greenhouse-controlled conditions at 35° C. under moisture to preconditioned Striga seeds for 10 days. On 11th day, one week old five rice seedlings (cv IAC165) were planted in each pot. After three days of rice planting, each pot was first irrigated with 250 ml phosphorus deficient Hoaglands nutrient solution and after four hours of irrigation 25 ml formulated MZ3, MZ5 and Zaxinone (100 μM) were sprayed. Next day, each pot was again supplied with 250 ml nutrient solution to make the final concentration of each compound to 5 μM and to move the compound to rice seedlings. Pots with and without Striga seeds were kept as the negative and positive control. Each compound was applied twice in a week up to four weeks. The rice plants were grown under normal growth condition (30° C., 70% RH) for eight weeks. The number of emerged Striga plants in each pot were counted.

[2] = system: strigolactones (4-deoxyorobanchol, orobanchol) release; assay: LC-MS/MS quantification of SLs in rice root exudates; conditions: 5 μM
Procedure: For SL analysis, one-week-old seedlings were transferred into 50 ml falcon tubes (two seedlings per tube), containing half-strength Hoagland nutrient solution with K2HPO4.2H2O (+Pi), and grown in the biochamber for one week. Rice seedlings were then subjected to phosphate deficiency (−Pi) for another one week. On the day of root exudates collection, rice seedlings were first treated with 5 μM Zaxinone, or MZ compounds for 6 h, and then root exudates and root tissues were collected from each tube for LC-MS/MS analysis and Striga bioassays.
For the quantification of SLs in rice root exudates, 50 ml of root exudates spiked with 0.672 ng of D6-5-deoxystrigol, was brought on a 500 mg/3 ml fast SPE C18 column preconditioned with 6 ml of methanol and 3 ml of water. After washing with 3 ml of water, SLs were eluted with 5 ml of acetone. The 4-deoxyorobanchol fraction (acetone-water solution) was concentrated to SL aqueous solution (˜500 μl), followed by the extraction with 1 ml of ethyl acetate. 750 μl of SLs enriched organic phase was then transferred to 1.5 ml tube and evaporated to dryness under vacuum. The dried extract was dissolved in 100 μl of acetonitrile:water (25:75, v:v) and filtered through a 0.22 µm filter for LC-MS/MS analysis.

wild-type rice plants = assay: Rice phenotypes in soil (rhizotron system); conditions: 5 μM
Procedure: For testing MZ3 and MZ5 on rice phenotypes in the rhizotron system (48 cm×24 cm×5 cm), three-day-old seedlings were grown in soil with half-strength modified Hoagland nutrient solution containing 0.4 mM K2HPO4.2H2O (+Pi) and 5 μM zaxinone for two weeks. The solution was changed every other day, adding the chemical at each renewal. To increase the compounds stability, 1 μl/ml emulsifier (cyclohexanone+Atlas […] kindly provided by a person […] of CRODA, Gouda; The Netherlands) was added into Hoagland nutrient solution. Root surface area was analyzed with the ImageJ software.

## COc1ccc(Oc2cccc(/C=C/C(C)=O)c2)cc1 [MZ3, (E)-4-(3-(4-methoxyphenoxy)phenyl)but-3-en-2-one]
[1]; wild-type rice roots, Pi starvation, 6 h (FIGS. 12A-12D)
  CCD7 and CO transcript level compared with Zaxinone: significantly lower
[1]; wild-type rice seedlings, Pi-starvation, 6 h
  transcript levels of SL biosynthesis enzymes D27, CCD7, CCD8 and CO: strongest inhibition; also recorded: pronounced decrease
Striga hermonthica seeds; exudates of Pi-starved WT rice seedlings exposed to 5 μM for 6 hours (FIG. 10)
  lowering of Striga seed germinating activity of collected exudates: around 40%
Striga hermonthica seeds; exudates of rice seedlings treated with 5 μM compound, Pi starvation (FIG. 2)
  decrease of Striga seed germination rate: ~45%
Striga hermonthica
  reduction of the number of emerging Striga plants compared to the untreated control: 71%
[2]; Pi-starved WT rice, 6 hours, control 20
  Oro content in root exudates: 5 pgmg-1dry-root-weight
[2]; Pi-starved WT rice, 6 hours, control 25
  4DO content in root exudates: 10 pgmg-1dry-root-weight
[2]; roots and root exudates, Pi-starved WT rice, 6 hours
  effect on 4-deoxyorobanchol relative to Zaxinone: significantly stronger
[2]; wild-type rice seedlings, Pi-starvation, 6 h, compared with Zaxinone (FIGS. 19, 20A-20B)
  SL level of the root exudate: obvious effect
[2]; zas mutant rice roots and root exudates, Pi starvation (FIGS. 11A-11B)
  SL content in zas mutant (high SL phenotype): strongly inhibited
wild-type rice plants
  root surface area and root numbers of WT plants compared with zaxinone treatment: increased more
